In ChEMBL document CHEMBL5154828 (J Med Chem, 2022):
Active and inactive are the calls of the source. The calls are words filed in the database; no cut-off is given here.

Experiments:
MDA-MB-361 = experiment: Antiproliferative activity against human MDA-MB-361 cells assessed as inhibition of cell growth measured after 10 days by cell titre glo luminescence assay; assay type: functional, cell-based; settings: time 10.0 day
[1] = Toxicity in athymic mouse xenografted with tamoxifen-sensitive human MCF7 cells assessed as body weight loss at 5 to 15 mg/kg, po qd incubated for 21 days; assay type: organism-based; settings: in vivo, 504 h, dose 5-15 mg/kg, time 21 day
MCF7 = experiment: Antiproliferative activity against human MCF7 cells assessed as inhibition of cell growth measured after 6 days by cell titre glo luminescence assay; settings: MCF7, 144 h
[2] = test system: Estrogen receptor (Homo sapiens), P03372 [Y537S]; experiment: Induction of ERalpha Y537S mutant degradation in human MCF7 cells at 10 to 100 nM incubated for 4 hrs by Western blot analysis; assay type: cell-based; settings: dose 10-100 nM
[3] = AUC (0 to t) in ICR mouse at 2 mg/kg, iv measured up to 24 hrs by LC/MS/MS analysis; assay type: ADME, organism-based; set-up: dose 2 mg/kg, time < 24 hrs, route iv; settings: in vivo
[4] = Volume of distribution at steady state in ICR mouse at 2 mg/kg, iv measured up to 24 hrs by LC/MS/MS analysis; assay type: ADME, organism-based; settings: in vivo, read-out: Vdss
[5] = MRT in ICR mouse at 2 mg/kg, iv measured up to 24 hrs by LC/MS/MS analysis; assay type: ADME, organism-based; settings: in vivo
[6] = Drug concentration in rat ovary at 20 mg/kg, po measured after 2 hrs; assay type: ADME, organism-based, Female gonad; settings: female, read-out: Ct
[7] = biological target: T1, Estrogen receptor (Homo sapiens) (UniProt P03372); experiment: Induction of ERalpha degradation in human T47D cells incubated 24 hrs by Western blot analysis; assay type: cell-based; settings: dose 0.1-1000 nM, DDE = dose-dependent effect
T1 sequence (whole entry): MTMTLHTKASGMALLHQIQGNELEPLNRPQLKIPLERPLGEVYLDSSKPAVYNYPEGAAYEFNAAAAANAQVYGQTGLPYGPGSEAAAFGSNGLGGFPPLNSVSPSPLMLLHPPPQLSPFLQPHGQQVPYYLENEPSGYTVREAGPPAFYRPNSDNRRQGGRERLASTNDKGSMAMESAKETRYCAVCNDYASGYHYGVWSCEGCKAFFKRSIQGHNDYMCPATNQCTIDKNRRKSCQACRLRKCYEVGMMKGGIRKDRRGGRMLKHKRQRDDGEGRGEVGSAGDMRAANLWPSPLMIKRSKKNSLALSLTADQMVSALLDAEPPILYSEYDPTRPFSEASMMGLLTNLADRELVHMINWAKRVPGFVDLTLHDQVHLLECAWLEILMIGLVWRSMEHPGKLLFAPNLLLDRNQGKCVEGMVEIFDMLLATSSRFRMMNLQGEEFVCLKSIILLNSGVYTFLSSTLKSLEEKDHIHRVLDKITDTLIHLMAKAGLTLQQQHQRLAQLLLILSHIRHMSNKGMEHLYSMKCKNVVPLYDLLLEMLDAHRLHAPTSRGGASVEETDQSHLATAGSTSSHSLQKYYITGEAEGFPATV

Estrogen receptor = biological target: T2, Estrogen receptor (Homo sapiens, UniProt P03372); experiment: Induction of ERalpha degradation in human MCF7 cells incubated for 24 hrs by Western blot analysis; assay type: cell-based
T2 sequence (P03372 whole entry): T1 sequence (whole entry)

[8] = MRT in ICR mouse at 5 mg/kg, po measured up to 24 hrs by LC/MS/MS analysis; assay type: ADME, organism-based; settings: in vivo
T47D = experiment: Antiproliferative activity against human T47D cells assessed as inhibition of cell growth measured after 7 days by cell titre glo luminescence assay; assay type: functional, cell-based; settings: time 7.0 day
[9] = biological target: T1, Estrogen receptor (Homo sapiens); experiment: Induction of ERalpha degradation in human BT-474 cells incubated 24 hrs by Western blot analysis; assay type: cell-based; settings: dose 0.1-1000 nM, DDE = dose-dependent effect

Sequence of Estrogen receptor (Homo sapiens), P03372 [Y537S] (P03372 whole entry Y537S): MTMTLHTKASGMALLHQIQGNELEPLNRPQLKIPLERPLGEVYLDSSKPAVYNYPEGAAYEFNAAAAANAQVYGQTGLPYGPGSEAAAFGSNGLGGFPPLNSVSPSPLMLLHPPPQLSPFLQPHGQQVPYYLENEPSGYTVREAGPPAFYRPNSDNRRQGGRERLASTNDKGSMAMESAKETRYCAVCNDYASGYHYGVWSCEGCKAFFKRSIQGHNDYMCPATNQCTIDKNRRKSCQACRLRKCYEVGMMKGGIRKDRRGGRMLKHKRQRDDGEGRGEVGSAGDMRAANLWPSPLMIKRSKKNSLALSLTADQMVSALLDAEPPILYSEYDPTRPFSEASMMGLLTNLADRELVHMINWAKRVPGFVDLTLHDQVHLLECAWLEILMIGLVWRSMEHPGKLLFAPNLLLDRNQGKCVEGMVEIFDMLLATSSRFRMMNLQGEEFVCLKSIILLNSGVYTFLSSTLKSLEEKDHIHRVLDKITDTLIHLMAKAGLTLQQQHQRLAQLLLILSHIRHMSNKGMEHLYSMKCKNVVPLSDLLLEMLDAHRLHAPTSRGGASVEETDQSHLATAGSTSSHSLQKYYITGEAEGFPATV

With `CC(F)(F)c1cc(Cl)ccc1-c1sc2c(ccc3[nH]ncc32)c1Oc1ccc(OC2CN(CCCF)C2)cc1` the Activity (MDA-MB-361) was “Active”, the Activity [1] was “Non-Toxic” and the IC50 (MCF7) was 1 nM. For the same compound, the Activity [2] was “Active”, the AUC(0-t) at 24 h [3] was 4630 ng·h/mL and the Vd [4] was 2.7 L/kg. The MRT [5] was 6.4 h, the concentration at 2 h [6] was 4420 ng/mL and the Activity [7] was “Dde”. The EC50 (Estrogen receptor) was 1.1 nM, the MRT [8] was 8.2 h and the Activity (T47D) was “Active”. For the same compound, the Activity [9] was “Dde”.
